The term IC50 denotes the concentration that inhibits the measured activity by half.

The test deals with T1, human mPGES-1 (Homo sapiens, UniProt O14684).
T1 sequence (O14684 1-152): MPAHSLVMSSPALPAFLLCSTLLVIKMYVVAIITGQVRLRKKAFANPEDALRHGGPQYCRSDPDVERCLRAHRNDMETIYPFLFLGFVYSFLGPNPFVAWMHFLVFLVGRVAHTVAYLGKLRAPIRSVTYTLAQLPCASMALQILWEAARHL
As to the kind of experiment: Microsomal prostaglandin E synthase biochemical assay. Particulars: microsome preparation containing human mPGES-1; PGH2 10.8 μM, GSH 2.5 mM, pH 6.8; PGE2 by HTRF; average of at least n=2. The method, boiled down:
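Human mPGES-1 microsomes at 2 μg/mL were pre-incubated 15 min with compound (60 μM to 0.002 μM) in 50 mM potassium phosphate pH 6.8 with 2.5 mM GSH. The reaction was started with 10.8 μM PGH2 and stopped after 1 minute with acidic ferric chloride/citrate. PGE2 was quantified by HTRF; IC50 is the mean of at least 2 runs.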
(In general: Time-resolved FRET reads energy transfer from a long-lived donor to a nearby acceptor.)
Compound `NS(=O)(=O)c1c(F)cccc1NS(=O)(=O)/C=C/c1ccc(Cl)cc1` [Example 80, 2-[[(E)-2-(4-Chlorophenyl)ethenyl]sulfonylamino]-6-fluoro-benzenesulfonamide] registered an IC50 of 570 nM.

The compound `Cc1ccc(NS(=O)(=O)/C=C/c2ccc(C(F)(F)F)cc2)c(S(N)(=O)=O)c1` [Example 97, 5-Methyl-2-[[(E)-2-[4-(trifluoromethyl)phenyl]ethenyl]sulfonylamino]-benzenesulfonamide] had a half-inhibitory concentration (IC50) of 3400 nM.

For the compound `NS(=O)(=O)c1cc(F)ccc1NS(=O)(=O)/C=C/c1ccc(-c2ccco2)cc1` [Example 35, 5-Fluoro-2-[[(E)-2-[4-(2-furyl)phenyl]ethenyl]sulfonylamino]benzenesulfonamide], the IC50 turned out to be 170 nM.

On to `COc1cc(Cl)ccc1/C=C/S(=O)(=O)Nc1ccccc1S(N)(=O)=O` [Example 49, 2-[2-(4-Chloro-2-methoxy-phenyl)-ethenesulfonylamino]-benzenesulfonamide], for which the IC50 was 36 nM.

Take `CC(CS(=O)(=O)Nc1ccccc1S(N)(=O)=O)c1ccc(Cl)cc1` (stereo not drawn) [Example 108, 2-[2-(4-Chlorophenyl)propylsulfonylamino]benzenesulfonamide]: the IC50 turned out to be 4900 nM.

`NS(=O)(=O)c1ccccc1NS(=O)(=O)CCc1ccc2ccccc2c1` [Example 110, 2-(2-Naphthalen-2-ylethylsulfonylamino)benzenesulfonamide] gave a half-inhibitory concentration (IC50) of 490 nM.

On to `COc1ncc(-c2cccc(S(=O)(=O)Nc3ccncc3S(N)(=O)=O)c2)cc1Cl` [Example 203, 4-(3-(5-Chloro-6-methoxypyridin-3-yl)phenylsulfonamido)pyridine-3-sulfonamide], for which half-maximal inhibition (IC50) was put at 2100 nM.

`NS(=O)(=O)c1ccc(F)cc1NS(=O)(=O)/C=C/c1ccc(-c2ccco2)cc1` [Example 34, 4-Fluoro-2-[[(E)-2-[4-(2-furyl)phenyl]ethenyl]sulfonylamino]benzenesulfonamide] returned an IC50 of 120 nM.

The compound `COc1cc(Cl)ccc1CCS(=O)(=O)Nc1ccncc1S(N)(=O)=O` [Example 206, 4-(2-(4-Chloro-2-methoxyphenyl)ethylsulfonamido)pyridine-3-sulfonamide] gave a concentration for half-maximal inhibition (IC50) of 9100 nM.

`NS(=O)(=O)c1cc(F)ccc1NS(=O)(=O)/C=C/c1cccc(C(F)(F)F)c1` [Example 54, 5-Fluoro-2-[[(E)-2-[3-(trifluoromethyl)phenyl]ethenyl]sulfonylamino]-benzenesulfonamide] showed an IC50 of 270 nM.

As to `C/C(=C\c1ccc(Cl)cc1)S(=O)(=O)Nc1ccc(F)cc1S(N)(=O)=O` [Example 12, 2-[[(E)-1-(4-Chlorophenyl)prop-1-en-2-yl]sulfonylamino]-5-fluoro-benzenesulfonamide], the IC50 worked out at 1000 nM.

Compound `NS(=O)(=O)c1ccc(F)cc1NS(=O)(=O)CCc1ccc(Cl)cc1` [Example 85, 2-[2-(4-Chlorophenyl)ethylsulfonylamino]-4-fluoro-benzenesulfonamide] registered an IC50 of 800 nM.

For `C/C(=C\S(=O)(=O)Nc1ccccc1S(N)(=O)=O)c1ccc(Cl)cc1` [Example 86, 2-[[(E)-2-(4-Chlorophenyl)prop-1-enyl]sulfonylamino]benzenesulfonamide], half-maximal inhibition (IC50) was put at 700 nM.

`NS(=O)(=O)c1ccc(F)cc1NS(=O)(=O)/C=C/c1ccccc1F` [Example 67, 4-Fluoro-2-[[(E)-2-(2-fluorophenyl)ethenyl]sulfonylamino]benzenesulfonamide] gave an IC50 of 6400 nM.

In the case of `NS(=O)(=O)c1ccccc1NS(=O)(=O)c1cccc(-c2cc3ccccc3o2)c1` [Example 136, 3-Benzofuran-2-yl-N-(2-sulfamoylphenyl)benzenesulfonamide], half-maximal inhibition (IC50) was put at 3800 nM.

With `NS(=O)(=O)c1c(F)cccc1NS(=O)(=O)/C=C/c1ccc2ccccc2c1` [Example 88, 2-Fluoro-6-[[(E)-2-naphthalen-2-ylethenyl]sulfonylamino]benzenesulfonamide], 1300 nM corresponded to half-maximal inhibition (IC50).

The compound `CC(C)(C)C#Cc1ccc(CCS(=O)(=O)Nc2ccc(CO)cc2S(N)(=O)=O)cc1` [Example 211, 2-{2-[4-(3,3-Dimethyl-but-1-ynyl)-phenyl]-ethanesulfonylamino}-5-hydroxymethyl-benzenesulfonamide] gave a half-maximal inhibitory concentration (IC50) of 75 nM.

With `C/C(=C\c1ccc(Cl)cc1)S(=O)(=O)Nc1ccc(C)cc1S(N)(=O)=O` [Example 15, 2-[[(E)-1-(4-Chlorophenyl)prop-1-en-2-yl]sulfonylamino]-5-methyl-benzenesulfonamide], the half-inhibitory concentration (IC50) amounted to 7600 nM.

`NS(=O)(=O)c1c(F)cc(F)cc1NS(=O)(=O)c1cccc(Cl)c1Cl` [Example 196, 2,3-Dichloro-N-(3,5-difluoro-2-sulfamoylphenyl)benzenesulfonamide] had a 50% inhibitory concentration (IC50) of 1900 nM.

With `C[C@@](O)(C(=O)Nc1ccc(S(=O)(=O)Nc2ccccc2S(N)(=O)=O)cc1Cl)C(F)(F)F` [Example 158, (2R)—N-[2-Chloro-4-[(2-sulfamoylphenyl)sulfamoyl]phenyl]-3,3,3-trifluoro-2-hydroxy-2-methyl-propanamide], half-maximal inhibition (IC50) required 8700 nM.

As for `NS(=O)(=O)c1cc(Oc2ccccc2)ccc1NS(=O)(=O)c1cccc(-c2ccc(Cl)c(Cl)c2)c1` [Example 155, 2-[[3-(3,4-Dichlorophenyl)phenyl]sulfonylamino]-5-phenoxy-benzenesulfonamide], the IC50 was 9800 nM.

Compound `Cc1ccc(NS(=O)(=O)/C=C/c2ccc(Br)cc2)c(S(N)(=O)=O)c1` [Example 190, (E)-2-(2-(4-Bromophenyl)vinylsulfonamido)-5-methylbenzenesulfonamide] returned an IC50 of 680 nM.

`NS(=O)(=O)c1c(NS(=O)(=O)CCc2ccc(-c3ccco3)cc2)ccc2c1CCC2` [Example 234, 5-(2-(4-(Furan-2-yl)phenyl)ethylsulfonamido)-2,3-dihydro-1H-indene-4-sulfonamide] gave a half-maximal inhibitory concentration (IC50) of 6200 nM.

`NS(=O)(=O)c1ccc(F)cc1NS(=O)(=O)/C=C/c1ccc(Br)cc1` [Example 95, 2-[[(E)-2-(4-Bromophenyl)ethenyl]sulfonylamino]-4-fluoro-benzenesulfonamide] had an IC50 of 310 nM.

For `NS(=O)(=O)c1ccc(F)cc1NS(=O)(=O)/C=C/c1ccc(-c2cc3ccccc3o2)cc1` [Example 5, 2-[[(E)-2-(4-Benzofuran-2-ylphenyl)ethenyl]sulfonylamino]-4-fluoro-benzenesulfonamide], half-maximal inhibition (IC50) required 40 nM.

As for `NS(=O)(=O)c1c(F)cccc1NS(=O)(=O)/C=C/c1ccc(OC(F)F)cc1` [Example 43, 2-[[(E)-2-[4-(Difluoromethoxy)phenyl]ethenyl]sulfonylamino]-6-fluoro-benzenesulfonamide], half-maximal inhibition (IC50) required 110 nM.

On to `COc1ccccc1/C=C/S(=O)(=O)Nc1cc(F)ccc1S(N)(=O)=O` [Example 58, 4-Fluoro-2-[[(E)-2-(2-methoxyphenyl)ethenyl]sulfonylamino]benzenesulfonamide], for which it took 300 nM to reach half-maximal inhibition (IC50).

On to `CC(Cc1ccccc1)S(=O)(=O)Nc1ccccc1S(N)(=O)=O` (stereo not drawn) [Example 8, 2-(1-Phenylpropan-2-ylsulfonylamino)benzenesulfonamide], for which inhibition was half-maximal at 2200 nM (IC50).

In the case of `CSc1ccc(/C=C/S(=O)(=O)Nc2ccccc2S(N)(=O)=O)cc1` [Example 40, 2-[[(E)-2-(4-Methylsulfanylphenyl)ethenyl]sulfonylamino]benzenesulfonamide], the IC50 was found to be 1200 nM.

For `NS(=O)(=O)c1ccccc1NS(=O)(=O)/C=C/c1ccc(-c2ccc(C(F)(F)F)cc2)cc1` [Example 218, (E)-2-(2-(4′-(trifluoromethyl)biphenyl-4-yl)vinylsulfonamido)benzenesulfonamide], half-maximal inhibition (IC50) required 180 nM.

Compound `NS(=O)(=O)c1c(F)cccc1NS(=O)(=O)/C=C/c1cccc(Cl)c1` [Example 56, 2-[[(E)-2-(3-Chlorophenyl)ethenyl]sulfonylamino]-6-fluoro-benzenesulfonamide] registered a half-inhibitory concentration (IC50) of 530 nM.

For the compound `NS(=O)(=O)c1ccccc1NS(=O)(=O)/C=C/c1ccccc1F` [Example 193, (E)-2-(2-(2-Fluorophenyl)vinylsulfonamido)benzenesulfonamide], the half-inhibitory concentration (IC50) was determined as 7900 nM.

For the compound `COc1cccc(-c2cccc(S(=O)(=O)Nc3ccccc3S(N)(=O)=O)c2)c1` [Example 135, 3-(3-Methoxyphenyl)-N-(2-sulfamoylphenyl)benzenesulfonamide], 8300 nM corresponded to half-maximal inhibition (IC50).

For the compound `NS(=O)(=O)c1ccccc1NS(=O)(=O)/C=C/c1ccc(OC(F)(F)C(F)F)cc1` [Example 216, (E)-2-(2-(4-(1,1,2,2-tetrafluoroethoxy)phenyl)vinylsulfonamido)benzenesulfonamide], the IC50 is 130 nM.

`NS(=O)(=O)c1ccccc1NS(=O)(=O)/C=C/c1c(Cl)cccc1Cl` [Example 81, 2-[[(E)-2-(2,6-Dichlorophenyl)ethenyl]sulfonylamino]benzenesulfonamide] registered an IC50 of 2900 nM.

Regarding `NS(=O)(=O)c1ccccc1NS(=O)(=O)CCc1ccc(-c2ccc(C(F)(F)F)cc2)cc1` [Example 224, 2-(2-(4′-(trifluoromethyl)biphenyl-4-yl)ethylsulfonamido)benzenesulfonamide], the half-inhibitory concentration (IC50) is 100 nM.

Regarding `NS(=O)(=O)c1ccccc1NS(=O)(=O)c1ccc(-c2cc3ccccc3o2)cc1` [Example 142, 4-Benzofuran-2-yl-N-(2-sulfamoylphenyl)benzenesulfonamide], the midpoint of inhibition, the IC50, lay at 4900 nM.

Compound `NS(=O)(=O)c1ccccc1NS(=O)(=O)CCc1ccccc1Cl` [Example 76, 2-[2-(2-Chlorophenyl)ethylsulfonylamino]benzenesulfonamide] showed a half-maximal inhibitory concentration (IC50) of 1200 nM.

In the case of `NS(=O)(=O)c1ccccc1NS(=O)(=O)c1ccc(Cl)c(Cl)c1` [Example 161, 3,4-Dichloro-N-(2-sulfamoylphenyl)benzenesulfonamide], the IC50 was determined as 1300 nM.

The record behind these values is patent US20090163586A1, “Bis-(Sulfonylamino) Derivatives in Therapy 205” (AstraZeneca AB, priority 2007, published 2009).
